The target in data set [1] is Cytochrome P450 2D6 (Homo sapiens, UniProt P10635). Nature of the data set: Inhibition of CYP2D6 (unknown origin). The class given is ADME.
For data set [2], the target named is Cytochrome P450 3A4 (Homo sapiens, UniProt P08684). Description: Inhibition of CYP3A4 (unknown origin). The class given is ADME.
The target of data set [3] is T1, Cytochrome P450 1A2 (Homo sapiens, UniProt P05177).
T1 sequence (P05177 whole entry): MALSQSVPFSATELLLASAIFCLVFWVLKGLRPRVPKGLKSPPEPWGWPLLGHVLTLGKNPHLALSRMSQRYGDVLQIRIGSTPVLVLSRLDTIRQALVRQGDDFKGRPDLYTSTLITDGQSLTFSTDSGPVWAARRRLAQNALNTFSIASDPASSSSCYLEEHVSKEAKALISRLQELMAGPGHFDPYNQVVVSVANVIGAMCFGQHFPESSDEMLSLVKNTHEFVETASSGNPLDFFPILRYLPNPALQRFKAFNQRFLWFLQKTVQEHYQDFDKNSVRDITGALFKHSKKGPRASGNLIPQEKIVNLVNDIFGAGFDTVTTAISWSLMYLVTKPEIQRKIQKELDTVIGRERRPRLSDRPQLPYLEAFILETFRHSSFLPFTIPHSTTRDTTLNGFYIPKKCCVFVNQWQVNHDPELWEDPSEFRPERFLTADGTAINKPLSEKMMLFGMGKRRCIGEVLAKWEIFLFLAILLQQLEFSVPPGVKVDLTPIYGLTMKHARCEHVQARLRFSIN
Nature of the data set: Inhibition of CYP1A2 (unknown origin). Format: ADME.

Data set [4] has as its target T2, Cytochrome P450 2B6 (Homo sapiens, UniProt P20813).
T2 sequence (P20813 whole entry): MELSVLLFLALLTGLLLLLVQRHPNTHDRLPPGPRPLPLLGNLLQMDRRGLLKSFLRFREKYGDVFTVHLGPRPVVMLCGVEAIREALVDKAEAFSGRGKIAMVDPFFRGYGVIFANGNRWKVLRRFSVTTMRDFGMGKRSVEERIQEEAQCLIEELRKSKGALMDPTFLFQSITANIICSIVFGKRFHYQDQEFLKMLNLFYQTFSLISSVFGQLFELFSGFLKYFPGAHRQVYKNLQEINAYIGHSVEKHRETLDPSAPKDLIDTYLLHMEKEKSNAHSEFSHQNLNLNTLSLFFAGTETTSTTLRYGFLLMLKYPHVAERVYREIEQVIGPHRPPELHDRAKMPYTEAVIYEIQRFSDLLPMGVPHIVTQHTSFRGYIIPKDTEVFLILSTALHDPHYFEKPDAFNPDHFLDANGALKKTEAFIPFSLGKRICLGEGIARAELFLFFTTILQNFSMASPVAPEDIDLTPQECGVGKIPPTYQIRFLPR
Nature of the data set: Inhibition of CYP2B6 (unknown origin). The class given is ADME.

For data set [5], the target named is Cytochrome P450 2C9 (Homo sapiens, UniProt P11712). Nature of the data set: Inhibition of CYP2C9 (unknown origin). The class given is ADME.
Data set [6] has as its target T3, Cytochrome P450 2C8 (Homo sapiens, UniProt P10632).
T3 sequence (P10632 whole entry): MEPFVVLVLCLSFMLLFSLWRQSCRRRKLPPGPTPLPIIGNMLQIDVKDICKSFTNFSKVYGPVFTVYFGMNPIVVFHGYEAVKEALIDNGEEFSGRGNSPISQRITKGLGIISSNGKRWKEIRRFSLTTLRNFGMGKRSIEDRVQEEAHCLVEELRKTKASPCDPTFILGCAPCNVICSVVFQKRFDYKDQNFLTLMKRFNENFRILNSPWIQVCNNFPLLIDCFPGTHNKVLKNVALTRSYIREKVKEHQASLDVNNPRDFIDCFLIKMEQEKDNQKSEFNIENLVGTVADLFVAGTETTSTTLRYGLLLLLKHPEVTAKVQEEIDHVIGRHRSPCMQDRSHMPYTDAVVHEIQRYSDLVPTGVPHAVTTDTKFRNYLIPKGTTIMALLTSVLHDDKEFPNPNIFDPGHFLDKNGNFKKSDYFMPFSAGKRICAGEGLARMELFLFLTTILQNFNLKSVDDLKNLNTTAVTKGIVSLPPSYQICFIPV
Description: Inhibition of CYP2C8 (unknown origin). Format: ADME.

Data set [7] is described as follows: in vivo. The following applies: Wistar, rat, plasma, po, 3 mg/kg.
A short description of data set [8]: in vivo. The following applies: Wistar, rat, po, 3 mg/kg.
The nature of data set [9]: in vivo. To be noted: Wistar, rat, brain, po, 3 mg/kg.
The nature of data set [10]: Half life in Wistar rat brain at 3 mg/kg, po by HPLC-MS/MS analysis.
Data set [11] can be described thus: animal or person. To be noted: Mus musculus, NMRI, po, read-out: INH.
The nature of data set [12]: in vivo. To be noted: Wistar, rat, brain, po, 3 mg/kg. The source holds these as a separate data set.
Data set [13] is described as follows: in vivo. The following applies: Wistar, rat, brain, po, 3 mg/kg. This is another data set of the same source.
A short description of data set [14]: Efflux ratio of apparent permeability across basolateral to apical side over apical to basolateral side in vinblastine treated human Caco-2 cells at 1 to 10 uM incubated for 15 to 60 hrs by HPLC analysis. For orientation: Caco-2 monolayers are a common model of the intestinal barrier.
Data set [15] is described as follows: animal or person. The following applies: Mus musculus, NMRI, po, read-out: INH. This is another data set of the same source.
A short description of data set [16]: in vitro. The following applies: Wistar, rat, microsomes.
Data set [17] can be described thus: Apparent permeability of compound across apical to basal side in vinblastine treated human Caco-2 cells at 1 to 10 uM incubated for 15 to 60 mins by HPLC analysis.
The nature of data set [18]: in vivo. To be noted: Wistar, rat, plasma, iv, 3 mg/kg.
The target of data set [19] is Voltage-gated inwardly rectifying potassium channel KCNH2 (Homo sapiens, UniProt Q12809).
Description: Inhibition of hERG expressed in CHO cells at -80 mV holding potential incubated for 7 to 10 mins by automated patch clamp method
The nature of data set [20]: in vivo. To be noted: Wistar, rat, plasma, iv, 3 mg/kg. The source holds these as a separate data set.
The nature of data set [21]: Half life in Wistar rat plasma at 3 mg/kg, po by HPLC-MS/MS analysis.
A short description of data set [22]: Half life in Wistar rat plasma at 3 mg/kg, iv by HPLC-MS/MS analysis.
For data set [23] the following is noted: human, microsomes, 1 µM.
Data set [24] is described as follows: in vitro. The following applies: NMRI, mouse, microsomes.
Data set [25] can be described thus: in vivo. The following applies: Wistar, rat, po, 3 mg/kg. This is another data set of the same source.
The nature of data set [26]: in vivo. To be noted: Wistar, rat, iv, 3 mg/kg.
The nature of data set [27]: in vitro. The following applies: CD-1, mouse, liver microsomes.
Data set [28] is described as follows: animal or person. To be noted: Rattus norvegicus, po, read-out: INH.
Data set [29] deals with T4, Vasopressin V1a receptor (Homo sapiens, UniProt P37288).
Description: Displacement of [3H]vasopressin from human V1A receptor assessed as inhibition constant by Cheng-Prusoff equation analysis
In data set [30] the target is T4, Vasopressin V1a receptor. The source holds these as a separate data set.
Description: Antagonist activity at human V1A receptor expressed in human 1321N1 cells assessed as Ca2+ mobilization incubated for 15 mins by FLIPR calcium 5 assay

One may read the IC50 as the concentration needed to halve the response being measured. Higher therefore signals weaker potency. Usually Cmax stands for the maximum level reached in the sampled fluid or tissue. As a reminder, the AUC(0-t) is the area under the concentration-time curve up to a stated or last time point. The low end stands for low exposure, the high end for high exposure. As usually defined, the half-life is the time in which the quantity being followed falls by half. A high value points to slow loss. Broadly, the Tmax is the time at which the peak concentration occurs. One may read the efflux ratio as the permeability from basolateral to apical divided by that in the opposite direction, in the common usage. Usually microsomal CLint stands for the rate of metabolic loss divided by the concentration. Lower therefore signals greater metabolic stability. A word on the Papp A→B: it is how fast a substance crosses the layer from the apical side. A word on the Ki: it is a dissociation constant, usually derived from enzyme kinetics or from competition with a known ligand. Higher therefore signals weaker binding.

Voltage-gated inwardly rectifying potassium channel KCNH2, sequence (Q12809 whole entry): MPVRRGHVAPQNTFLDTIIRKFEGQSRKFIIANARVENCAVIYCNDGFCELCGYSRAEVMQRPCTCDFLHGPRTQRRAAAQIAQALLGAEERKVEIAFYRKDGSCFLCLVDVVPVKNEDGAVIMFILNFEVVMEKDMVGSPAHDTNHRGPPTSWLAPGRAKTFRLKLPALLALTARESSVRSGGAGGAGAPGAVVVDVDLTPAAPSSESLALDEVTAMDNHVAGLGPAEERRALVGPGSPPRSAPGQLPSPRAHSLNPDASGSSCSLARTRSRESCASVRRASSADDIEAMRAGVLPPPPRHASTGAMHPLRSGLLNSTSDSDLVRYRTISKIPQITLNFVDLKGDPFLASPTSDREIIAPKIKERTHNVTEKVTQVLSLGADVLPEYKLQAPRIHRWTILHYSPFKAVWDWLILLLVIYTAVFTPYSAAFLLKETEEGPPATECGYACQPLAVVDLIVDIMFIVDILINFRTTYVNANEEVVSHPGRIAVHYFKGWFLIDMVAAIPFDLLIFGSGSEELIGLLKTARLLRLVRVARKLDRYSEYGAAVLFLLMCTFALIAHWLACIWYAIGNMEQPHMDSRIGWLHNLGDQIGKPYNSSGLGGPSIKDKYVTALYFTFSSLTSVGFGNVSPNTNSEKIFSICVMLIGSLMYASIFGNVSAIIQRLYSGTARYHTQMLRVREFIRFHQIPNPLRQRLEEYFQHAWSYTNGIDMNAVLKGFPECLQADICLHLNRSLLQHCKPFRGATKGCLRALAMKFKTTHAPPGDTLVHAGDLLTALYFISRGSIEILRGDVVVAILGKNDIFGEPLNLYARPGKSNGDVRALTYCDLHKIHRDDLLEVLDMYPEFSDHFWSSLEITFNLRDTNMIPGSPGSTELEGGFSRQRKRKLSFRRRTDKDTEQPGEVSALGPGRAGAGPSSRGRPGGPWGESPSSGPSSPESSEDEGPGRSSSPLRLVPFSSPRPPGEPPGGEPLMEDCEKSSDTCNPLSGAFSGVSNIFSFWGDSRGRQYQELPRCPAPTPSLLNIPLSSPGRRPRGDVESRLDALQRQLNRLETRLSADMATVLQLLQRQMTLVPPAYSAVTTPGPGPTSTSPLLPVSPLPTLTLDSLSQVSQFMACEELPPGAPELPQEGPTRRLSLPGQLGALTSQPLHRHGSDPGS
T4 sequence (P37288 whole entry): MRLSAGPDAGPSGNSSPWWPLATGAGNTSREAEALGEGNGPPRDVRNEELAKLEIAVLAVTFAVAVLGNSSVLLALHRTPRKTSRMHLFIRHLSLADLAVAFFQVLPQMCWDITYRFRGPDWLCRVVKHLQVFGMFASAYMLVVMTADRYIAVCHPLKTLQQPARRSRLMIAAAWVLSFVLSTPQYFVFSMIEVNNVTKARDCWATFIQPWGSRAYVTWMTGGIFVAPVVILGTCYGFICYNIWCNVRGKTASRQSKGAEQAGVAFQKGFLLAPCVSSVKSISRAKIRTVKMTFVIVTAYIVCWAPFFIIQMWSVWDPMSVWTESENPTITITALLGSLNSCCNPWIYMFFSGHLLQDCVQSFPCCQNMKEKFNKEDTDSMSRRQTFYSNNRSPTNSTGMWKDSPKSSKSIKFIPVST
Cytochrome P450 2D6, sequence (P10635 whole entry): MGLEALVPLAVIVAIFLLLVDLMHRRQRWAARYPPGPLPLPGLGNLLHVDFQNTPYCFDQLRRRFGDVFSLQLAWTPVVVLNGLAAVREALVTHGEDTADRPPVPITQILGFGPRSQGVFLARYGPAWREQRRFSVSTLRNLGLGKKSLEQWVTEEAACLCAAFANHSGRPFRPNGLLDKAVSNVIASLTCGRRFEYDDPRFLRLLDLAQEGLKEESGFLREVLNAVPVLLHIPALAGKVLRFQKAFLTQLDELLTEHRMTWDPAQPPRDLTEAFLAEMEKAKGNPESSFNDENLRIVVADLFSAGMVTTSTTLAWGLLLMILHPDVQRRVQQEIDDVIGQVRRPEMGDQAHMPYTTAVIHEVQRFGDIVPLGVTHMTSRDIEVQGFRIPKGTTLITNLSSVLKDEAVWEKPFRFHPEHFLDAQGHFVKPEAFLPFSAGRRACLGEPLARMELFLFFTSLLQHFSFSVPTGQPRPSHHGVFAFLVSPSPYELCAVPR
Cytochrome P450 3A4, sequence (P08684 whole entry): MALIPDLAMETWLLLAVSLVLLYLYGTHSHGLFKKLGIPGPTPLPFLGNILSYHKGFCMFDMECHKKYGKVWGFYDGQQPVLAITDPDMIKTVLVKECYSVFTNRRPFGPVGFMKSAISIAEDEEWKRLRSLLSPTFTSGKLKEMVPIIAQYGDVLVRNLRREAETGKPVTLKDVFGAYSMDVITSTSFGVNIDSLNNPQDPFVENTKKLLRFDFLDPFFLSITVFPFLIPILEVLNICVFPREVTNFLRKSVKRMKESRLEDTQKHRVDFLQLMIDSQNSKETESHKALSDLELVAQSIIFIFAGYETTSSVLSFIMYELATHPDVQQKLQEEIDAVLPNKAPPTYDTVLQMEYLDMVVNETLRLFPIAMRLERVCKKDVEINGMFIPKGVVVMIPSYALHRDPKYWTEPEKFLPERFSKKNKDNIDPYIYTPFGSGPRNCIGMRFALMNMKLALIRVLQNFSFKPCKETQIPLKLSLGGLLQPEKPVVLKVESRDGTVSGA
Cytochrome P450 2C9, sequence (P11712 whole entry): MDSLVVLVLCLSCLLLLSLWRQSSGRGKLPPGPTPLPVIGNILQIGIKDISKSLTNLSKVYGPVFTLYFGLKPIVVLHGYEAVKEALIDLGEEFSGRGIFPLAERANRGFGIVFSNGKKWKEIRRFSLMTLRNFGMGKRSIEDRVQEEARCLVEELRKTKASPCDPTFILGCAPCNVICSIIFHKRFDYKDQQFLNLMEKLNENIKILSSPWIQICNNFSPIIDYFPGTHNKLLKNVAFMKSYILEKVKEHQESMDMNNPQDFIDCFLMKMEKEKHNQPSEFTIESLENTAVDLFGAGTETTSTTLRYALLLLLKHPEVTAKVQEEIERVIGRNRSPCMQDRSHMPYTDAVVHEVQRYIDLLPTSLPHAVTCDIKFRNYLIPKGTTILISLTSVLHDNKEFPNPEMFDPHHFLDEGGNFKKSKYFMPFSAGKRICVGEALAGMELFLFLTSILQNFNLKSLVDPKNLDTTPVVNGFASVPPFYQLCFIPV

As for `Clc1ccc2c(c1)CC1(Cc3nnc([C@H]4CC[C@H](Oc5ccccn5)CC4)n3-2)OCCO1`, the IC50 in [1], in data set [2], in data set [3], in [4], in [5] and in data set [6] was above 10 µM each time.

For the compound `OC1Cc2cc(Cl)ccc2-n2c(nnc2[C@H]2CC[C@H](Oc3ccccn3)CC2)C1` (mixture of isomers), the Cmax was 403 nM in data set [7], 190 nM in data set [9] and 469 nM in data set [18]. Besides, the values for the exposure AUC(0-t) in data set [8], in data set [25] and in data set [26] were 0.481 µM·h, 0.897 µM·h and 0.876 µM·h, respectively. The figures for the half-life in data set [10], in [21] and in data set [22] were 1.43 h, 1.5 h and 1 h, respectively. Also, the inhibition in vivo at 3 mg/kg in data set [11] was 87%. In data set [12], the Kp worked out at 0.54. For the same compound, the Tmax in [13] amounted to 0.5 h; in [20], 0.3 h. Further, in data set [14], the efflux ratio at 10 µM is 5.9. Also, the inhibition in vivo at 10 mg/kg in data set [15] came out at 91%. Further, the microsomal CLint at 1 µM stood at 17 µL/min/mg in data set [16] and 6 µL/min/mg in data set [24]. The apparent permeability from apical to basolateral (Papp A→B) at 10 µM in [17] turned out to be 20 ×10⁻⁶ cm/s. This compound also registered a half-maximal inhibitory concentration (IC50) in [19] above 30 µM. This compound yielded a CLH in [23] of 0.58 mL/day/kg.

As to `CO[C@@H]1Cc2cc(Cl)ccc2-n2c(nnc2[C@H]2CC[C@H](Oc3ccccn3)CC2)C1`, the microsomal CLint at 1 µM came to 25 µL/min/mg in data set [27] and 41 µL/min/mg in [16]. Further, the inhibition in vivo at 3 mg/kg in [11] worked out at 73%. Also, in data set [14], the efflux ratio at 10 µM came out at 0.9. In addition, the values for the inhibition in vivo at 10 mg/kg in data set [28] and in [15] were above 60% and 67%, respectively. Moreover, the apical-to-basolateral permeability (Papp A→B) at 10 µM in data set [17] stood at 38 ×10⁻⁶ cm/s. Further, the IC50 stood at 13.8 µM in [19] and 0.0006 µM in data set [30]. The compound also registered a Ki in data set [29] of 0.0002 µM.

For the origin of these results see ChEMBL document CHEMBL5532679, “Discovery and Characterization of RGH-122, a Potent, Selective, and Orally Bioavailable V1a Receptor Antagonist” (J Med Chem, 2024).
